Reference: patent US12077495B2 (priority 2018, dated 2024)

Columns and labels:
[1] = test system: wild-type and GABAB receptor knock-out mice; test: Temperature recording (hypothermia) in mice; type: in vivo; details: 500 mg/kg i.p.; wild-type or GABAB knock-out mice
Procedure: Mice were pre-treated with saline injections (0.9% saline) i.p. for 4 days prior to the experiment to minimize stress on the day of the experiment. Experiments were conducted in a quiet room, in which mice were left undisturbed for at least two hrs prior to the experiment. After the i.p. injections, mice were left in their home cages for two hrs, had core body temperature recorded, and were then euthanized. The core body temperature was measured rectally by a thermometer (model DM 852; ELLAB Instruments; Copenhagen, Denmark) via a lubricated thermistor probe (model PRA-22002-A, 2.2 mm diameter; ELLAB Instruments). Mice were held at the base of the tail and measured until a stable temperature measurement was obtained.
By contrast, compound A had no effect on hypothermia in either wild-type or knock-out mice.

[2] = test system: permanent middle cerebral artery occlusion in C57BL/6J mice; test: pMCAO model of focal ischemia, infarct volume; type: in vivo; details: 175 mg/kg 30 min after pMCAO; day 3; saline 16.6
Procedure: The pMCAO study was performed using age-matched, young adult (7-8 weeks), male C57BL/6J mice (Taconic). Mice were housed in separate cages under diurnal lighting and given free access to food (1314 Altromin) and water. Mice were acclimatized for seven days prior to surgery in accordance with guidelines approved by the Danish Animal Ethical Committee.
Focal cerebral ischemia was made by permanent occlusion of the distal part of the left middle cerebral artery (MCA). Mice were anesthetized by injection of a mixture of Hypnorm (fentanyl citrate 0.315 mg/ml and fluanisone 10 mg/ml; Jansen-Cilag), Stesolid (5 mg/ml Diazepamum; Dumex) and distilled water (1:1:2; 0.20 ml/10 g body weight, s.c.). The mouse was placed on a 37±0.5° C. warm heating pad and a skin incision was made from eye to ear. […]
For quantification of the infarcted area, animals were perfused with saline and then with 4% paraformaldehyde (PFA) and the brain dissected out and submerged in 4% PFA for post-fixing overnight. […] Sections were mounted, stained for cresyl violet and the infarct volumes determined by measuring every 6th section through the entire infarct as described in Lie et al (2017). […] The glass slides were stored at −80° C. until further processing, and then Cresyl-Violet stained and quantified as described for the photothrombotic photochemical method. […]

[3] = test system: photothrombotic focal ischemia in C57BL/6J mice; test: Photothrombotic model, behavioural assessment (grid-walking and cylinder tasks); type: in vivo; details: for cylinder task, improvement vs saline / grid-walking task, reduction of asymmetry: 7 days after ischemia
Procedure: All procedures were performed in accordance with the guidelines on the care and use of laboratory animals set out by the University of Otago, Animal Research Committee and the Guide for Care and Use of Laboratory Animals (NIH Publication No. 85-23, 1996). All in vivo studies were approved by the University of Otago Animal Ethics Committee and are reported according to the ARRIVE (Animal Research: Reporting In Vivo Experiments) guidelines. The photochemical cortical lesion model resembles situations of acute brain injury related clinically to stroke and traumatic brain injury (TBI). Focal ischemia was induced by photothrombosis in male C57BL/6J mice (8-10 weeks) weighing ˜23-30 g as previously described (Clarkson et al., 2010). Under anesthesia with isoflurane (2% to 2.5% in O2) mice were placed in a stereotactic apparatus, the skull exposed through a midline incision, cleared of connective tissue and dried. A cold light source (KL1500 LCD, Zeiss, Auckland, New Zealand) attached to a 40× objective providing a 2-mm diameter illumination was positioned 1.5 mm lateral from bregma. Then, 0.2 ml of Rose Bengal (Sigma-Aldrich, Auckland, New Zealand; 10 mg/ml in normal saline) was administered i.p. After 5 min, the brain was illuminated through the exposed intact skull for 15 min, while keeping body temperature at 37.0±0.3° C. degrees using a heating pad (Harvard apparatus, Holliston, MA, USA). The skin was glued and animals left in a cage placed on a heating pad during the wake-up phase. Mice were housed under a 12-hr light/dark cycle with ad libitum access to food and water. Further, the mice were monitored and weighed on a daily basis.
For in vivo studies, all compounds were dissolved in a mixture of sterile saline and H2O to obtain isotonicity (0.9%) and administered as 10 mg/ml and 10 μl of solution per gram mouse body weight. The injection of compound (i.p.) was performed 30 min, 3, 6 or 12 hrs after induction of the photothrombotic stroke. The vehicle groups received a corresponding volume of saline (0.9%) at the same time points (30 min, 3, 6 or 12 hrs).
Forelimb motor performance was determined using the cylinder and grid-walking tasks as previously described (Clarkson et al., 2010). All animals were tested both in a pre- and post-testing session, 1 week before and 3 days or 7 days after the ischemic insult, respectively. Observers who scored the behaviour were blinded to the treatment groups.

MCP-1, IL-6 and IL-1a = test: Quantification of cytokines in plasma after photothrombotic focal ischemia; type: in vivo, mice; details: 4 hrs after focal ischemia
Procedure: Detection of MCP-1 (monocyte chemotactant protein-1), IL-6 (interleukin-6) and IL-1a (interleukin-1a) was performed using a LEGENDplex assay kit according to the manufacturers' instructions (BioPlex, BioLegend, San Diego, CA, USA).
To evaluate the inflammatory response at early time points, blood samples were collected 4 hrs after induction of a focal ischemic event.

[4] = 175 mg/kg 30 min after ischemia, day 3

## O=C(O)C1=CC(O)CC1 (stereo not drawn) [Compound A, 3-hydroxycyclopent-1-enecarboxylic acid]
[1]
  effect on body temperature (hypothermia): no effect
[2]
  infarct volume: 12.3 mm^3
[3]; 17.5 mg/kg 30 min after ischemia, day 3
  cylinder task, reduction of asymmetry: 40%
[3]; 17.5 mg/kg 30 min after ischemia, day 3, non-significant
  grid-walking task, reduction vs saline: 10%
[3]; [4]
  cylinder task, reduction of asymmetry: 42%
  grid-walking task, improvement vs saline: 26%
[3]; 175 mg/kg 3 hr after ischemia
  cylinder task, improvement vs saline: 16%
  grid-walking task, reduction of asymmetry: 31%
[3]; 175 mg/kg 6 hr after ischemia
  cylinder task, improvement vs saline: 20%
  grid-walking task, reduction of asymmetry: 22%
[3]; 175 mg/kg 12 hr after ischemia
  cylinder task, improvement vs saline: non-significant
  grid-walking task, reduction of asymmetry: 21%
MCP-1, IL-6 and IL-1a
  MCP-1 plasma levels: tendency towards a decrease
MCP-1, IL-6 and IL-1a; vs saline
  IL-1a plasma levels: did not significantly affect
  IL-6 plasma levels: significantly lowered
